Reference: ChEMBL document CHEMBL5053503 (J Med Chem, 2021)
pKi: −log10 of the molar value. Active and inactive are the calls of the source. No cut-off for these calls is given here.

Key:
[1] = molecular target: T1, 5-hydroxytryptamine receptor 1A (Homo sapiens) (UniProt P08908); experiment: Displacement of [3H][…] from human recombinant 5-HT1A receptor expressed in cells at 100 nM measured after 60 to 90 mins by radioligand completion assay relative to control; assay type: cell-based; details: time 60-90 min
T1 sequence (whole entry): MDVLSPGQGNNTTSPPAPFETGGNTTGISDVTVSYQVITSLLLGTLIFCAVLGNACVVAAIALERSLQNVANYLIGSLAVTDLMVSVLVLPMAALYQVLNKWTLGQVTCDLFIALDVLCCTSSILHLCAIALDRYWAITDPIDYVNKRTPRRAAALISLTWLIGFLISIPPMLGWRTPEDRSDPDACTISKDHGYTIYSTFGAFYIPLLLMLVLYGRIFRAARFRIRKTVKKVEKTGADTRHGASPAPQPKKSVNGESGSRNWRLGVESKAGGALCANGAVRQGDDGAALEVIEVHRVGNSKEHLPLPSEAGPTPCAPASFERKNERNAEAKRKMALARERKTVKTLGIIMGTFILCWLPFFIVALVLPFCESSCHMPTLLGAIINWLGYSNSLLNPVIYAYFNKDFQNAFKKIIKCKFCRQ

[2] = molecular target: T1, 5-hydroxytryptamine receptor 1A (Homo sapiens); experiment: Displacement of [3H][…] from human recombinant 5-HT1A receptor expressed in cells at 10 uM measured after 60 to 90 mins by radioligand completion assay relative to control; assay type: cell-based; details: time 60-90 min
[3] = molecular target: T2, 5-hydroxytryptamine receptor 3A (Homo sapiens) (UniProt P46098); experiment: Displacement of [3H]BRL43694 from human recombinant 5-HT3 receptor expressed in CHO cells at 10 uM measured after 120 mins by radioligand completion assay relative to control; assay type: cell-based
T2 sequence (whole entry): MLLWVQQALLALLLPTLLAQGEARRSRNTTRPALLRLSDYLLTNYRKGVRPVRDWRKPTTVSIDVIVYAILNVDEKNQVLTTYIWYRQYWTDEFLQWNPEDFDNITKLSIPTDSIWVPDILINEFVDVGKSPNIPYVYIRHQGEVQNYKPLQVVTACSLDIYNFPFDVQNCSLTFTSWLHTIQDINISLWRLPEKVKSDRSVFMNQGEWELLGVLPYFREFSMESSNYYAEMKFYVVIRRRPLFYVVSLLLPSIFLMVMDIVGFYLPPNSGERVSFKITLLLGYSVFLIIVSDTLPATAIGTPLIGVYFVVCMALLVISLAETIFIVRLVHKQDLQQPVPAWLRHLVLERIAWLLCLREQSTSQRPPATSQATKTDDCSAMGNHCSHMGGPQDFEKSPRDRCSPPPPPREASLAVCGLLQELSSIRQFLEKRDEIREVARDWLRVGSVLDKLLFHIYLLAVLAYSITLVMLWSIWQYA

[4] = molecular target: T2, 5-hydroxytryptamine receptor 3A (Homo sapiens); experiment: Displacement of [3H]BRL43694 from human recombinant 5-HT3 receptor expressed in CHO cells at 100 nM measured after 120 mins by radioligand completion assay relative to control; assay type: cell-based
[5] = molecular target: T3, 5-hydroxytryptamine receptor 2C (Homo sapiens) (UniProt P28335); experiment: Displacement of [125I](+/-)DOI from human recombinant 5-HT2C receptor expressed in CHO cells at 10 uM measured after 60 mins by radioligand completion assay relative to control; assay type: cell-based
T3 sequence (whole entry): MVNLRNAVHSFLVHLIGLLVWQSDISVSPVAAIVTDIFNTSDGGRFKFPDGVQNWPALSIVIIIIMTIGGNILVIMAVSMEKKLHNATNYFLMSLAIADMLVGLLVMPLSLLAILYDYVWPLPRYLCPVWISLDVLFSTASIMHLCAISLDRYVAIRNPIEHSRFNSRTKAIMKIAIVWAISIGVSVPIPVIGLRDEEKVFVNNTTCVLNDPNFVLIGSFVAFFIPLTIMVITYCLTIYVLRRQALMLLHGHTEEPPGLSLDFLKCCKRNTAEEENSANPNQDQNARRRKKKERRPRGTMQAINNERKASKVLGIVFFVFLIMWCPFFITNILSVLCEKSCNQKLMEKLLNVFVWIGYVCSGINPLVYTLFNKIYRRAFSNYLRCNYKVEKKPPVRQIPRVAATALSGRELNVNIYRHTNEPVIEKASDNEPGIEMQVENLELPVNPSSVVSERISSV

[6] = molecular target: T3, 5-hydroxytryptamine receptor 2C (Homo sapiens); experiment: Displacement of [125I](+/-)DOI from human recombinant 5-HT2C receptor expressed in CHO cells at 100 nM measured after 60 mins by radioligand completion assay relative to control; assay type: cell-based
[7] = molecular target: T4, 5-hydroxytryptamine receptor 2B (Homo sapiens, UniProt P41595); experiment: Displacement of [125I](+/-)DOI from human recombinant 5-HT2B receptor expressed in CHO cells at 10 uM measured after 60 mins by radioligand completion assay relative to control; assay type: cell-based
T4 sequence (P41595 whole entry): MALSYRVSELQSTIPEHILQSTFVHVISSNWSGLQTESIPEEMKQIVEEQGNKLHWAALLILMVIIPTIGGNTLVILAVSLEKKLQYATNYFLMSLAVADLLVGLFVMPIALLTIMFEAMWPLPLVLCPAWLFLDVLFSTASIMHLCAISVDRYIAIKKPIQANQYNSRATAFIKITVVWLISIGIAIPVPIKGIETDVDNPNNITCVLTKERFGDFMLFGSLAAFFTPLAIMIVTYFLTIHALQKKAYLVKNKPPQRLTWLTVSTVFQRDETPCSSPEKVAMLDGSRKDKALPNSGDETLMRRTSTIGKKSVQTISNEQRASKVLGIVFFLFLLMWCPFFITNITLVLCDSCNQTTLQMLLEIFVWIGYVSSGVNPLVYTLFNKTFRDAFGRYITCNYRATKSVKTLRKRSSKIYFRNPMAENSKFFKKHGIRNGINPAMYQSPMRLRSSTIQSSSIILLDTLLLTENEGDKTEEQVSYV

[8] = molecular target: T4, 5-hydroxytryptamine receptor 2B; experiment: Displacement of [125I](+/-)DOI from human recombinant 5-HT2B receptor expressed in CHO cells at 100 nM measured after 60 mins by radioligand completion assay relative to control; assay type: cell-based
[9] = molecular target: T5, 5-hydroxytryptamine receptor 2A (Homo sapiens, UniProt P28223); experiment: Displacement of [125I](+/-)DOI from human recombinant 5-HT2A receptor expressed in HEK293 cells at 10 uM measured after 60 to 90 mins by radioligand completion assay relative to control; assay type: cell-based; details: time 60-90 min
T5 sequence (P28223 whole entry): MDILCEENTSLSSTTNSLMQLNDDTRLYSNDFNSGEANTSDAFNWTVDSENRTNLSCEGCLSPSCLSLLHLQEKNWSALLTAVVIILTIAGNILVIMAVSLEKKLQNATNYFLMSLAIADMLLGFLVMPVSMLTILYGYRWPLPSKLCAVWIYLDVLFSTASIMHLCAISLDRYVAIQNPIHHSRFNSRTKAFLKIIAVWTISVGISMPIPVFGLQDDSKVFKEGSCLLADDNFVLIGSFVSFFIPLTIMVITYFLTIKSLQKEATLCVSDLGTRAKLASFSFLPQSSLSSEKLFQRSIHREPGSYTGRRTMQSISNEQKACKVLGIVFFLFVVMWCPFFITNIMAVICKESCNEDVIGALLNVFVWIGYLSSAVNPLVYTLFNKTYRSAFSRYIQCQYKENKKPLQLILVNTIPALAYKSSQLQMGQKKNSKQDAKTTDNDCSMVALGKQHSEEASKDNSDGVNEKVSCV

[10] = molecular target: T5, 5-hydroxytryptamine receptor 2A; experiment: Displacement of [125I](+/-)DOI from human recombinant 5-HT2A receptor expressed in HEK293 cells at 100 nM measured after 60 to 90 mins by radioligand completion assay relative to control; assay type: cell-based; details: time 60-90 min
[11] = Apparent volume of distributed in Sprague-Dawley rat at 5 mg/kg, iv; assay type: ADME, organism-based; details: in vivo, read-out: Vz
[12] = AUCinfinity in Sprague-Dawley rat at 5 mg/kg, iv; assay type: ADME, organism-based; parameters: time infinity, dose 5 mg/kg, route iv; details: in vivo
[13] = Clearence in Sprague-Dawley rat at 5 mg/kg, iv; assay type: ADME, organism-based; details: in vivo
[14] = molecular target: 5-hydroxytryptamine receptor 1B (Rattus norvegicus) (UniProt P28564); experiment: Displacement of [125I]CYP from rat cerebral cortex 5-HT1B receptor at 10 uM measured after 120 mins by radioligand completion assay relative to control; assay type: tissue-based
Sequence of 5-hydroxytryptamine receptor 1B (Rattus norvegicus) (P28564 whole entry): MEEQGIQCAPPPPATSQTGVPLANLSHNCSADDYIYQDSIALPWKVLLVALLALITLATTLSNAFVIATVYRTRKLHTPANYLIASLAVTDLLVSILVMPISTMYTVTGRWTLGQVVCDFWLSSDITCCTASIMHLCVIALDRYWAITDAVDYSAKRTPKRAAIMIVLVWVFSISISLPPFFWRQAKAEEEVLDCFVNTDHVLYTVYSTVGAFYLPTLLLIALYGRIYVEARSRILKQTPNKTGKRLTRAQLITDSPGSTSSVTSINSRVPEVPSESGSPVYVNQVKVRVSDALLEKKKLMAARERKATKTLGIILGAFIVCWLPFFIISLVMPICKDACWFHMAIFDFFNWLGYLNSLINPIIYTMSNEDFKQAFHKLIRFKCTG

[15] = system: Rattus norvegicus; assay type: functional; details: Sprague-Dawley, route ip, time 15 min
[16] = molecular target: T5, 5-hydroxytryptamine receptor 2A; experiment: Displacement of [3H]LSD from human recombinant 5-HT2A receptor expressed in HEK cells by radioligand completion assay relative to control; assay type: cell-based
[17] = molecular target: T6, 5-hydroxytryptamine receptor 1A (Homo sapiens, UniProt P08908); experiment: Displacement of [3H][…] from human recombinant 5-HT1A receptor expressed in CHO cells measured after 60 to 90 mins by radioligand completion assay relative to control; assay type: cell-based
T6 sequence (P08908 whole entry): T1 sequence (whole entry)

[18] = molecular target: T7, 5-hydroxytryptamine receptor 2C (Homo sapiens, UniProt P28335); experiment: biochemical
T7 sequence (P28335 whole entry): T3 sequence (whole entry)

[19] = molecular target: T4, 5-hydroxytryptamine receptor 2B; experiment: biochemical
[20] = AUCinfinity in Sprague-Dawley rat at […], iv; assay type: ADME, organism-based; details: in vivo
[21] = molecular target: T4, 5-hydroxytryptamine receptor 2B; experiment: Displacement of [3H]LSD from human recombinant 5-HT2B receptor expressed in CHO cells by radioligand completion assay relative to control; assay type: cell-based
[22] = molecular target: T6, 5-hydroxytryptamine receptor 1A; experiment: Displacement of [3H][…] from human recombinant 5-HT1A receptor expressed in HEK cells measured after 60 to 90 mins by radioligand completion assay relative to control; assay type: cell-based
[23] = system: Rattus norvegicus; assay type: functional; details: Sprague-Dawley, route iv
[24] = system: Rattus norvegicus; assay type: functional; details: Sprague-Dawley, route iv; remark: listed apart in the source
[25] = molecular target: 5-hydroxytryptamine receptor 7 (Homo sapiens, UniProt P34969); experiment: biochemical
Sequence of 5-hydroxytryptamine receptor 7 (P34969 whole entry): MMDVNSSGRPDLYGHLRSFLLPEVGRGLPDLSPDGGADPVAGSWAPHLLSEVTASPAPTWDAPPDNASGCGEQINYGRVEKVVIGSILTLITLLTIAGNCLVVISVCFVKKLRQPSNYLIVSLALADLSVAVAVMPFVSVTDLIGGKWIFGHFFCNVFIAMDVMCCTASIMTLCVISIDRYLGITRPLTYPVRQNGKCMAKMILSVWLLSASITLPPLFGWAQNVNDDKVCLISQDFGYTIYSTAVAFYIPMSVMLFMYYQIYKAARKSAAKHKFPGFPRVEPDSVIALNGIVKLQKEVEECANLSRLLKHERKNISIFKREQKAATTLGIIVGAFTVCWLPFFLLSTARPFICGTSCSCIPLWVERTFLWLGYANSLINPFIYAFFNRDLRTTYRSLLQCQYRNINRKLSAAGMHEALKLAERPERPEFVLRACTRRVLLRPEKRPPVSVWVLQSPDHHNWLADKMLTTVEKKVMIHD

[26] = system: Rattus norvegicus; assay type: functional, organism-based; details: Sprague-Dawley, dose 1.0 mg/kg, route ip, time 15.0 min
[27] = molecular target: T6, 5-hydroxytryptamine receptor 1A; experiment: Displacement of [3H]5-CT from human recombinant 5-HT1A receptor expressed in CHO cells measured after 60 to 90 mins by radioligand completion assay relative to control; assay type: cell-based

Row | SMILES | Activity [1] [%] | Activity ([2]; filed as agonist) [%] | Activity [3] [%] | Activity [4] [%] | Activity [5] [%] | Activity [6] [%] | Activity ([7]; filed as agonist) [%] | Activity [8] [%] | Activity [10] [%] | Activity [14] [%] | ED50 [15] [mg/kg] | pKi [16] | pKi [17] | pKi [18] | pKi [19] | ED50 [23] [mg/kg] | also measured
1 | COC(=O)C1=COC[C@H]2CN3CCc4c([nH]c5ccccc45)[C@@H]3C[C@H]12 | 33.2 | 95.2 | 1.8 | -2.5 | -5.3 | -12.5 | 89.3 | 6.2 | 5.1 | – | – | – | – | – | – | – | Activity [9]: 36.5%
2 | CC[C@@H]1CN2CCc3c([nH]c4cccc(OC)c34)[C@@H]2C[C@@H]1/C(=C\OC)C(=O)OC | 9.7 | 76.7 | -12.7 | -9.1 | 14.7 | -8.2 | 90.7 | 23 | -0.9 | 8.2 | 26.8 | 5.30 | 5.23 | < 5.00 | 5.90 | – | Vd [11]: 8 L/kg; AUC [12]: 849.8 ng·h/mL; CL [13]: 21.7 mL/min/kg; Activity ([9]; filed as agonist): 49.9%
3 | CC[C@H]1CN2CCc3c([nH]c4cccc(OC)c34)[C@@H]2C[C@@H]1/C(=C\OC)C(=O)OC | – | 98.7 | 1.5 | 11.3 | – | – | – | – | 2.8 | 30.4 | 9.1 | 5.88 | 7.02 | 5.27 | 6.97 | 5.92 | AUC(0-inf) [20]: 495 ng·h/mL; Activity ([1]; filed as agonist): 58.9%; pKi [21]: 7.64; pKi [22]: 7.41; Activity ([5]; filed as agonist): 77.9%; ED50 [24]: 11.6 mg/kg
4 | C=C[C@H]1CN2CCc3c([nH]c4cccc(OC)c34)[C@@H]2C[C@@H]1/C(=C\OC)C(=O)OC | – | – | – | – | – | – | – | – | – | – | […] | 6.09 | 7.14 | 5.75 | 7.08 | 5.45 | pKi [21]: 7.70; pKi [22]: 7.49; pKi [25]: 6.06
5 | C=C[C@H]1CN2CCc3c([nH]c4cccc(O)c34)[C@@H]2C[C@@H]1/C(=C\OC)C(=O)OC | – | – | – | – | – | – | – | – | – | – | – | – | 7.01 | – | 6.47 | – | –
6 | CC[C@H]1CN2CCc3c([nH]c4cccc(O)c34)[C@@H]2C[C@@H]1/C(=C\OC)C(=O)OC | – | – | – | – | – | – | – | – | – | – | – | – | 6.53 | – | 6.29 | – | –
7 | CC[C@@H]1CN2CCc3c([nH]c4cccc(OC)c34)[C@H]2C[C@@H]1/C(=C\OC)C(=O)OC | -4.8 | – | 0.7 | 11.1 | 14.3 | 0.4 | 47.1 | -3.4 | 1.5 | 16.8 | – | – | – | – | – | – | Activity [2]: 33.3%; Activity ([9]; filed as agonist): 68.1%
8 | CC[C@@H]1CN2CC[C@@]3(O)C(=Nc4cccc(OC)c43)[C@@H]2C[C@@H]1/C(=C\OC)C(=O)OC | 3.1 | – | 19.5 | 8.2 | -13.9 | -18.3 | – | -1.4 | -0.2 | -0.8 | – | – | – | – | – | – | Activity [2]: 1.2%; Activity [7]: 12.4%; Activity [9]: 3.9%
9 | O=C1c2ccccc2S(=O)(=O)N1CCCCN1CCN(c2ncccn2)CC1 [IPSAPIRONE] | – | – | – | – | – | – | – | – | – | – | 0.431 | – | – | – | – | 3.41 | Activity [26]: inactive; pKi [27]: 7.30; ED50 [24]: 7.68 mg/kg
